The values below come from US20240349720A1, “ANTIMICROBIAL COMPOSITIONS COMPRISING ALKYL ETHER CARBOXYLIC ACIDS AND METHODS OF USE THEREOF” (ECOLAB USA INC., priority 2023, published 2024).

The subject of one assay is S. aureus. Briefly: Food contact sanitizing efficacy (AOAC Method 960.09). The note with it: pH adjusted to 2.1 with phosphoric acid, 30 seconds exposure. Format: cell-based. As for the experimental part:
(§1) Additional testing to confirm food contact sanitizing efficacy (AOAC Method 960.09) comparing three AEC surfactants was conducted where the surfactants were diluted in 500 ppm synthetic hard water and pH adjusted to 2.1 with phosphoric acid. The evaluated AEC surfactants are further described above in Table 2.

For another assay, the system named is E. coli. The assay is described as above. Format: cell-based. The note with it: pH adjusted to 2.1 with phosphoric acid, 30 seconds exposure. Here is the method: as §1
[1] abbreviates: 500 ppm surfactant in 500 ppm synthetic hard water.
The mark [2] stands for this setting: 750 ppm surfactant in 500 ppm synthetic hard water.
Where [3] appears, read: 1000 ppm surfactant in 500 ppm synthetic hard water.

With Capryleth-4 Carboxylic acid, the “Log reduction S. aureus” value with S. aureus (setting [1]), with S. aureus (setting [2]) and in the assay on S. aureus (setting [3]) was greater than 7.34 log throughout. Also, the “Log reduction E. coli” value with E. coli (setting [1]), with E. coli (setting [2]) and in the assay with E. coli (setting [3]) was greater than 7.59 log throughout.

Take Capryleth-9 Carboxylic acid: the “Log reduction S. aureus” value with S. aureus (setting [1]) is given as 5.31 log; in the assay on S. aureus (setting [2]) it was greater than 7.34 log; with S. aureus (setting [3]) it was greater than 7.34 log. Further, the “Log reduction E. coli” value with E. coli (setting [1]), in the assay on E. coli (setting [2]) and with E. coli (setting [3]) was less than 1.19 log throughout.

In the case of Capryleth-6 Carboxylic acid, the “Log reduction S. aureus” value in the assay with S. aureus (setting [1]), with S. aureus (setting [2]) and in the assay with S. aureus (setting [3]) was greater than 7.34 log each time. Also, the “Log reduction E. coli” value in the assay with E. coli (setting [1]) was 1.98 log; in the assay with E. coli (setting [2]), 3.44 log; with E. coli (setting [3]), greater than 7.59 log.
